Tests used:
Human PBMCs [1] = experiment: Cytokine production in PBMCs: human IFN-α by ELISA; format: cell-based; design: key: ″+″ means that there was production of IFNa or IL-6 on PBMC; ″−″means that noproduction of IFNa or IL-6 on PBMC was detected; conditions: compounds tested at concentration of 10 uM; human PBMCs cultured 20-22 hours; supernatant ELISA
Experimental: (§1) The compound functionality was tested for some of the compounds prepared by stimulation and determination of cytokine production in PBMCs.
(§2) Human PBMCs were prepared from buffy coat obtained from healthy volunteer donor by Ficoll centrifugation and were adjusted to the final cell concentration to 1×10^6 cells/mL.
(§3) For evaluation of compound activities, 1×10^5 PBMCs were plated in a 96-well plate in 100 μl of RPMI 1640 complete medium (cat no. 31800-022, GIBCO by Life Technologies, Grand Island, NY, USA) supplemented with 10% fetal bovine serum, the tested compound was first dissolved in DMSO and further diluted in PBS and RPMI 1640 medium to the final concentration of […] (corresponding to 6.28 μg/mL), then 3-fold serially dilution was made in a 96-well round-bottom plate. 100 μl diluted compound was added to the same volume of 1×10^5 PBMCs plate and cultured for 20-22 hours at 37° C. in a humidified atmosphere of 5% CO2. The supernatant was collected for human IFN-α, IL12(p70) and IL-6 analysis by ELISA assay according to the manufacturer's instructions (Mabtech AB, Sweden). Resiquimod was used as a positive control.

Human PBMCs [2] = experiment: Cytokine production in PBMCs: human IL-6 by ELISA; format: cell-based; design: key: ″+″ means that there was production of IFNa or IL-6 on PBMC; ″−″means that noproduction of IFNa or IL-6 on PBMC was detected; conditions: compounds tested at concentration of 10 uM; human PBMCs cultured 20-22 hours; supernatant ELISA
Experimental: as §1, §2, §3

Compound	Production of IFNa on PBMC (Human PBMCs [1])	Production of IL−6 on PBMC (Human PBMCs [2])
CCOCc1nc2c(N)nc3cccc(OCCC(C)C)c3c2n1C [Compound 17, 2-(ethoxymethyl)-9-(isopentyloxy)-1-methyl-1H-imidazo[4,5-c]quinolin-4-amine]	+	+
CCOCc1nc2c(N)nc3cccc(OC)c3c2n1CC(C)(C)O [Compound 1, 1-(4-amino-2-(ethoxymethyl)-9-methoxy-1H-imidazo[4,5-c]quinolin-1-yl)-2-methylpropan-2-ol]	+	+
CCOCc1nc2c(N)nc3cccc(OCC(C)C)c3c2[nH]1 [Compound 15, 2-(ethoxymethyl)-9-isobutoxy-1H-imidazo[4,5-c]quinolin-4-amine]	+	+
CCOCc1nc2c(N)nc3cccc(OCCCN)c3c2n1C [Compound 36, 9-(3-aminopropoxy)-2-(ethoxymethyl)-1-methyl-1H-imidazo[4,5-c]quinolin-4-amine]	+	+
CCCCCCCCCCCCCCCC(=O)NCCCOc1cccc2nc(N)c3nc(COCC)n(C)c3c12 [Compound 34, N-(3-((4-amino-2-(ethoxymethyl)-1-methyl-1H-imidazo[4,5-c]quinolin-9-yl)oxy)propyl)palmitamide]	+	+
CCOCc1nc2c(N)nc3cccc(OCCC(C)(C)O)c3c2n1CC(C)C [Compound 12, 4-((4-amino-2-(ethoxymethyl)-1-isobutyl-1H-imidazo[4,5-c]quinolin-9-yl)oxy)-2-methylbutan-2-ol]	+	+
CCOCc1nc2c(N)nc3cccc(OCCOC(C)C)c3c2n1C [Compound 16, 2-(ethoxymethyl)-9-(2-isopropoxyethoxy)-1-methyl-1H-imidazo[4,5-c]quinolin-4-amine]	+	+
CCCCCCCCCCCCCCCC(=O)NCCCCOc1cccc2nc(N)c3nc(COCC)n(C)c3c12 [Compound 35, N-(4-((4-amino-2-(ethoxymethyl)-1-methyl-1H-imidazo[4,5-c]quinolin-9-yl)oxy)butyl)palmitamide]	+	+
CCCCCCCCCCCCCCCCCC(=O)NCCCOc1cccc2nc(N)c3nc(COCC)n(C)c3c12 [Compound 23, N-(3-((4-amino-2-(ethoxymethyl)-1-methyl-1H-imidazo[4,5-c]quinolin-9-yl)oxy)propyl)stearamide]	+	+
CCOCc1nc2c(N)nc3cccc(OCCCCNC(C)=O)c3c2n1C [Compound 24, N-(4-((4-amino-2-(ethoxymethyl)-1-methyl-1H-imidazo[4,5-c]quinolin-9-yl)oxy)butyl)acetamide]	+	+

— patent publication US11834448B2, “2-amino-quinoline derivatives” (BIRDIE BIOPHARMACEUTICALS, INC., priority 2017, dated 2023)
